How the values were obtained:
S. Aureus ATCC 29213 = test: Dehydrogenase activity (DEHA) MTT test after BMD; assay type: cell-based, Staphylococcus aureus; details: 24 h exposure; % against untreated control; ± SD; n = 3
Procedure: (§1) The cell dehydrogenase (DEHA, redox, metabolic) activity of all samples was measured at the end of the BMD assay, based on reducing the MTT dye to formazan by the membrane located bacterial enzyme NADH: ubiquinone reductase (H^+-translocation). The protocol of Wang et al. was applied after minor modifications. Briefly, each sample was incubated for 120 min at 37 °C with MTT at a final concentration of 0.5 mg/mL in the culture medium. The resulting non-soluble violet formazan crystals were dissolved with an equal volume of 2-propanol supplemented with 5% formic acid. The absorbance was measured at 550 nm against a blank solution containing the respective volumes of MHB and MTT.
The cell viability is presented as a percentage of the untreated control. At least four wells were seeded for every concentration. Three independent assays were performed (n = 3). […] The respiratory activity of the bacterial cultures was calculated as a percentage against the untreated control.

[1] = system: S. Aureus MRSA NBIMCC 8327; test: Dehydrogenase activity (DEHA) MTT test after BMD; assay type: cell-based, Staphylococcus aureus; details: 24 h exposure; % against untreated control; ± SD; n = 3
Procedure: as §1
(§2) The IC50 values from the MTT assay were evaluated with a non-linear regression analysis (Curve fit, GraphPad Prizm 6.01 software, GraphPad Software Inc., San Diego, CA, USA) using sigmoidal concentration–response curves. The cell viability is presented as a percentage of the untreated control. […] The maximum tolerated concentration (MTC) for the cell lines was determined from three independent assays according to ISO 10993-5 as the maximum concentration at which at least 70% of the cells were viable (nonlin fit, range, GraphPad Prizm 6.01 software) GraphPad Software Inc., San Diego, CA, USA). […] The respiratory activity of the bacterial cultures was calculated as a percentage against the untreated control.

E. coli ATCC 35218 = test: Dehydrogenase activity (DEHA) MTT test after BMD; assay type: cell-based, Escherichia coli; details: in MHB; 24 h exposure; % against untreated control; ± SD; n = 3
Procedure: as §1, §2

[2] = system: Y. enterocolitica IP 864 O: 3; test: Dehydrogenase activity (DEHA) MTT test after BMD; assay type: cell-based, Yersinia enterocolitica; details: 24 h exposure; % against untreated control; ± SD; n = 3
Procedure: as §1
The IC50 values from the MTT assay were evaluated with a non-linear regression analysis (Curve fit, GraphPad Prizm 6.01 software, GraphPad Software Inc., San Diego, CA, USA) using sigmoidal concentration–response curves. The cell viability is presented as a percentage of the untreated control. At least four wells were seeded for every concentration. Three independent assays were performed (n = 3). The maximum tolerated concentration (MTC) for the cell lines was determined from three independent assays according to ISO 10993-5 as the maximum concentration at which at least 70% of the cells were viable (nonlin fit, range, GraphPad Prizm 6.01 software) GraphPad Software Inc., San Diego, CA, USA). To compare the MTC values of the solvents for each cell line, the ordinary One-way ANOVA statistical analysis based on Tukey’s multiple comparisons test with a single pooled variance (GraphPad Prizm 6.01 software) GraphPad Software Inc., San Diego, CA, USA) was utilized, and p ≤ 0.05 was set as a significance level. The respiratory activity of the bacterial cultures was calculated as a percentage against the untreated control.

[3] = system: A-375 (malignant melanoma); test: MTT dye-reduction cytotoxicity assay (ISO 10993-5); assay type: cell-based, human; details: solvent alone, n = 3
From the text: The cell lines utilized in this study included the human tumor lines A-375 (malignant melanoma) and A-431 (non-melanoma epidermoid squamous skin carcinoma) as well as the models for non-tumorigenic cells—HaCaT (immortalized human keratinocytes) and CCL-1^TM (transformed mouse fibroblasts, NCTC clone 929). The first three cell lines were obtained from CLS Cell Lines Service (GmbH, Eppelheim, Germany). CCL-1^TM was purchased from the American Type Culture Collection (ATCC, Manassas, VA, USA). Cells were maintained in a controlled environment—sterile cell culture flasks in a CO2 incubator Panasonic MCO-18AC (Panasonic Healthcare co., ltd, Oizumi-Machi, Japan) at 37 °C and a humidified atmosphere containing 5% CO2. CCL-1 was cultured in MEM with 10% heat-inactivated horse serum and 2 mM L-glutamine, and the cell culture medium for the rest of the cell lines was DMEM-HG with 4.5 g/L glucose with the addition of 10% heat-inactivated fetal bovine serum and 4 mM L-glutamine. Pen/strep (concentration of penicillin G sodium 10^5 Units/L and of streptomycin sulfate 100 mg/L) was added to both culture media. The cell lines were maintained as an adherent monolayer in a log phase. The cells were sub-cultivated about 1–3 times per week after the monolayer reached 80–90% confluence. The medium was removed from the flask, and the cell monolayer was washed with 3–5 mL PBS. The cells were incubated with 0.05% EDTA in PBS for 8–10 min, followed by the next step where all cell lines were subjected to enzyme cell detachment. HaCaT and CCL-1 monolayers were detached with 1 mL solution of trypsin/EDTA (0.1%/0.05% for HaCaT and 0.25% (w/v)/0.53 mM for CCL-1) and incubated for 2–5 min at 37 °C (for HaCaT) or at room temperature (for CCL-1 cells), whereas Accutase® was used for A-375 and A-431 lines. The incubation lasted until the separation and dispersion of the cells in the monolayer were observed using light microscopy. In the end, all cell lines were resuspended in 10 mL medium and centrifuged for 3 min at 300× g. The cell pellet was resuspended in fresh medium and sub-cultivated at a seeding density of 1.0 × 10^4 cells/cm^2.
The MTT test was performed in order to determine the median inhibitory (IC50) and MTC concentrations of the solvents and PAC according to Annex C, ISO 10993-5 [2, 21]. Briefly, 100 µL of the cell suspension (1 × 10^5 cells/mL) were seeded per well in 96-well plates with a flat bottom. The cells were incubated for 24 h, allowing them to enter the log phase of their growth. On the 24th hour, the cells were treated with the solvents or CystiCran® solutions in concentrations ranging between 0.004% and 2% volume fraction (v/v) and incubated further for 72 h. The incubation periods are following the recommendations of the FDA guide for the use of ISO 10993-1 [1]. At the end of the incubation period, 10 µL of an MTT solution (5 mg/mL) were added to each well, and the plates were kept at 37 °C for 2 hours. Thereafter, the medium was aspirated, and the formed formazan crystals were dissolved in 100 μL/well of 2-propanol supplemented with 5% formic acid. The same solvent was used as a blank. […] The absorption was measured at 540 nm (reference filter at 690 nm) on a microplate reader ELx800 (BioTek Instruments, Inc., Winooski, VT, Winooski, VT, USA).
The IC50 values from the MTT assay were evaluated with a non-linear regression analysis (Curve fit, GraphPad Prizm 6.01 software, GraphPad Software Inc., San Diego, CA, USA) using sigmoidal concentration–response curves. […]

Compound | DEHA (dehydrogenase activity) (S. Aureus ATCC 29213) [%] | DEHA (dehydrogenase activity) [1] [%] | DEHA (dehydrogenase activity) (E. coli ATCC 35218) [%] | DEHA (dehydrogenase activity) [2] [%] | MTC (maximum tolerated concentration) ([3]; 72 h, at least 70% of cells viable) | IC50 (CI 95%) ([3]; 72 h incubation)
C[S+](C)[O-] [DMSO, dimethyl sulfoxide] | 12.29 ± 0.04 | 13.01 ± 0.05 | 13.02 | 19.13 ± 0.17 | – | –
CCO [EtOH, ethanol] | – | – | – | – | > 2 % (v/v) | > 2 % (v/v)
